Measurements published in patent publication US20130035281A1, “PHARMACEUTICAL COMPOSITION, METHODS FOR TREATING AND USES THEREOF” (BOEHRINGER INGELHEIM INTERNATIONAL GMBH, priority 2011, published 2013).

Assays:
[1] = metformin on its own, in the diabetic; cited from earlier work
[2] = test system: Zucker diabetic fatty (ZDF) rats; assay: Oral glucose tolerance test in ZDF rats; type: in vivo; conditions: overnight fasted 12-weeks old male ZDF rats; single dose; Cpd. A 3 mg/kg oral, exendin-4 0.01 mg/kg subcutaneous; oral glucose 2 g/kg; blood glucose up to 120 min
Experimental: An oral glucose tolerance test was performed in overnight fasted 12-weeks old male Zucker diabetic fatty (ZDF) rats (ZDF/CRL-Lepr^fa). A pre-dose blood sample was obtained by tail bleed. Blood glucose was measured with a glucometer, and the animals were randomized for blood glucose (n=5/group). Subsequently, the groups received a single oral administration of either vehicle alone (0.5% aqueous hydroxyethylcellulose) or this vehicle containing the glucopyranosyl-substituted benzene derivative. […] The animals were orally dosed with glucose (2 g/kg) 30 min after the subcutaneous injection. Blood glucose was measured in tail blood 15 min, 30 min, 60 min, 90 min, and 120 min thereafter. Glucose excursion was quantified by calculating the reactive glucose AUC. The data are presented as mean±S.E.M. The two-sided unpaired Student's t-test was used for statistical comparison of the groups. A p value<0.05 was considered to show a statistically significant difference.

Row | SMILES | average improvement in the HbA1c value [1] | reduction of glucose excursion (reactive glucose AUC) [2] [%]
1 | CN(C)C(=N)N=C(N)N [metformin] | 1.0-1.5% | 
2 | OC[C@H]1O[C@@H](c2ccc(Cl)c(Cc3ccc(O[C@H]4CCOC4)cc3)c2)[C@H](O)[C@@H](O)[C@@H]1O [Cpd. A] |  | 57
